Measurements published in the supplement of paper PMC10307832.

Experiments:
Test in all cases: relative viability (nuclei count vs DMSO), 5 days (fraction); higher = more cells survive
[1] = compound: CCOC(=O)CCNc1cc(N2CCc3ccccc3CC2)nc(-c2ccccn2)n1 [GSK-J4]
How it was run: (§1)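 MetaXpress counted nuclei in 4× images of lung cancer cell lines that had been fixed, permeabilised and Hoechst-stained in one step. Before that, cells in 1536-well plates were kept overnight at 37 °C, pinned with five √10-spaced library-drug doses on vehicle-anchored plates, and cultured 5 days without medium change. Viability takes treated-well nuclei over vehicle-well nuclei and uses the median across plates. Plates were accepted only at control CV below 25% and at least one doubling.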

[2] = compound: CN1CCC(CC1)OC2=CC(=C(C=C2)NC3=NC=C4C(=N3)N(C(=O)N4C)C5CCCC5)OC [AZ3146]
How it was run: as §1

[3] = compound: CN1CCC(CC1)OC2=CC(=C(C=C2)NC3=NC=C4C(=N3)N(C(=O)N4C)C5CCCC5)OC [AZ3146] + CC1(C)CCC(c2ccc(Cl)cc2)=C(CN2CCN(c3ccc(C(=O)NS(=O)(=O)c4ccc(N[C@H](CCN5CCOCC5)CSc5ccccc5)c(S(=O)(=O)C(F)(F)F)c4)cc3)CC2)C1 [Navitoclax] (partner 0.5 µM)
How it was run: (§2)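 Cells from lung cancer lines were seeded into 1536-well plates and, one day later, dosed by pin tool. Treatments were either a single drug or a fixed dose of an anchor drug with five library-drug doses (not always all listed) in √10 steps. After 5 days, nuclei were stained in a one-step fixation (final 0.05% Triton X-100, 1% formaldehyde, 1 ug/ml Hoechst) and counted on 4× images, and relative viability is the treated-to-vehicle nuclei ratio, as the median of duplicate plates.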

[4] = compound: CCOC(=O)CCNc1cc(N2CCc3ccccc3CC2)nc(-c2ccccn2)n1 [GSK-J4] + CC(=O)Nc1cccc(-n2c(=O)n(C3CC3)c(=O)c3c(Nc4ccc(I)cc4F)n(C)c(=O)c(C)c32)c1 [Trametinib] (partner 0.02 µM)
How it was run: as §2

Cell Line	relative viability ([1]; 0.5 µM)	relative viability ([1]; 1.581 µM)	relative viability ([1]; 5 µM)	relative viability ([1]; 15.81 µM)	relative viability ([1]; 50 µM)	relative viability ([2]; 0.08 µM)	relative viability ([2]; 0.253 µM)	relative viability ([2]; 0.8 µM)	relative viability ([2]; 2.53 µM)	relative viability ([2]; 8 µM)	relative viability ([3]; first compound 0.08 µM)	relative viability ([3]; first compound 0.253 µM)	relative viability ([3]; first compound 0.8 µM)	relative viability ([3]; first compound 2.53 µM)	relative viability ([3]; first compound 8 µM)	relative viability ([4]; first compound 0.5 µM)	relative viability ([4]; first compound 1.581 µM)	relative viability ([4]; first compound 5 µM)	relative viability ([4]; first compound 15.81 µM)	relative viability ([4]; first compound 50 µM)
NCI-H596	1.04	0.833	0.92	0.889	0.903	0.985	0.841	0.931	0.979	0.963	1.02	0.884	0.9	0.95	0.929	0.797	0.759	0.639	0.725	0.771
NCI-H1734	0.9	0.909	0.686	0.765	0.807	0.96	1.09	0.954	1.04	0.98	0.821	0.828	0.831	0.847	0.846	0.633	0.524	0.627	0.58	0.545
NCI-H1915	0.924	0.856		0.969	1.12	0.9	1.04	1.07	1.03	0.991	0.783	0.807	0.807	0.816	0.814	0.299	0.302		0.28	0.293
NCI-H838	1.04	0.895	0.635	0.887	0.883	0.994	0.939	0.914	0.963	0.734	1.12	1.19	1.17	1.13	0.93	0.566	0.455	0.223	0.436	0.332
HCC-15	0.929	0.716	0.927	0.895	0.767	0.98	1.05	0.993	1.03	0.99	0.725	0.659	0.703	0.718	0.727	0.376	0.377	0.413	0.298	0.272
NCI-H1651	0.986	0.856	0.973	0.948	0.96	0.902	0.879	0.968	0.952	1.02	1.03	1.07	1	0.995	1.1	0.761	0.785	0.898	0.79	0.772
NCI-H2405	1.07	0.945		0.943	0.987	1.08	0.87	0.999	1.12	1.11	0.836		1	0.859	1.08	0.586	0.63		0.48	0.749
LU99A	0.819	0.872		0.884	0.756	0.783	1.04	0.989	0.964	1.11	0.698	0.764	1.01	0.868	0.834	0.551	0.485		0.441	0.35
H3255	0.997	0.869	0.91	0.811	0.854	0.935	0.902	1.01	1.09	0.981	0.527	0.35	0.582	0.628	0.467	0.656		0.53	0.48	0.541
